The source of these data is EP0992240A1, “THERAPEUTIC AGENT FOR ERECTION FAILURE” (MOCHIDA PHARMACEUTICAL CO., LTD., priority 1997, dated 1998).

For one assay, the system named is PDE type I. In words: PDE inhibiting activity, type I. The format is biochemical, dog. The conditions noted are these: PDE purified from canine aorta; 1 µM substrate cGMP or cAMP; read-out: Inhibition Activity IC50 (µM) Type I. As to the method:
On the basis of the method of Lugnier et al. (Biochem. Pharmacol., 35, 1743-1751, 1986), PDE was purified from the aorta in a dog. The canine aorta was minced and homogenized with a Waring Blender and a glass homogenizer in six volumes of a Tris-HCl buffer solution (pH 7.5, 20 mM) containing 2 mM magnesium acetate, 5 mM ethylenediaminetetraacetic acid (EDTA), 100 µg/mL of phenylmethylsulforyl fluoride and 15 mM 2-mercaptoethanol (2-ME), and centrifuged at 1200 x g for 30 min. The supernatant was separated and salted out with ammonium sulfate which was added to 45% saturation. The resulting precipitated fraction was resuspended in a Tris-HCl buffer solution (pH 7.5, 20 mM) containing 2 mM magnesium acetate and 1 mM 2-ME, dialyzed overnight and applied to a DEAE-trisacryl column (DEAE […] M:IBF). By elution with a sodium chloride gradient (0 - 0.4 M), PDE types V and III were separated from the other isozymes. The supernatant fraction of 45% saturated ammonium sulfate was further mixed with ammonium sulfate to 65% saturation and salted out. The resulting precipitated fraction was similarly applied to the DEAE-trisacryl column and eluted by a sodium chloride gradient (0 - 0.4 M) so as to separate PDE type I.
The thus obtained PDE types V, III and I were measured for their activity in accordance with the method of Thompson et al. (Adv. Cyclic Nucleotide Res., 10, 69-72, 1979) and the method of Wells et al. (Biochim. Biophys. Acta, 384, 430-443, 1975). Specifically, a purified PDE sample was added to 50 mM Tris-HCl buffer solution (pH 7.5) containing 1 µM of substrate cGMP or cAMP (containing tritium-labelled cGMP or cAMP), 1 mM EGTA and 2 mM magnesium acetate. For PDE activity measurement, enzymatically produced 5' GMP or 5' AMP was further hydrolyzed into guanosine or adenosine with snake venom and separated from the substrate by means of an ion-exchange resin (Dowex 1-X2), followed by measuring with a scintillation counter. The activity of each test compound was determined as a percentage of the PDE activity measured when it was added as a dimethyl sulfoxide solution (DMSO) and its IC50 (50% inhibition concentration) was calculated by the probit method. The final concentration of DMSO was adjusted to be no more than 2% in consideration of the effect on PDE activity.

In the next assay the target is T1, PDE type V (Canis lupus familiaris, UniProt O77746).
T1 construct: By elution with a sodium chloride gradient (0 - 0.4 M), PDE types V and III were separated from the other isozymes; from tissue; host or cells: canine aorta
The assay can be described thus: PDE inhibiting activity, type V. The format is biochemical, dog. The conditions noted are these: PDE purified from canine aorta; 1 µM substrate cGMP or cAMP; read-out: Inhibition Activity IC50 (µM) Type V.

Description for PDE type V: The canine aorta was minced and homogenized with a Waring Blender and a glass homogenizer in six volumes of a Tris-HCl buffer solution (pH 7.5, 20 mM) containing 2 mM magnesium acetate, 5 mM ethylenediaminetetraacetic acid (EDTA), 100 µg/mL of phenylmethylsulforyl fluoride and 15 mM 2-mercaptoethanol (2-ME), and centrifuged at 1200 x g for 30 min. […] By elution with a sodium chloride gradient (0 - 0.4 M), PDE types V and III were separated from the other isozymes. […] The resulting precipitated fraction was similarly applied to the DEAE-trisacryl column and eluted by a sodium chloride gradient (0 - 0.4 M) so as to separate PDE type I.
Specifically, a purified PDE sample was added to 50 mM Tris-HCl buffer solution (pH 7.5) containing 1 µM of substrate cGMP or cAMP (containing tritium-labelled cGMP or cAMP), 1 mM EGTA and 2 mM magnesium acetate. For PDE activity measurement, enzymatically produced 5' GMP or 5' AMP was further hydrolyzed into guanosine or adenosine with snake venom and separated from the substrate by means of an ion-exchange resin (Dowex 1-X2), followed by measuring with a scintillation counter. […] The final concentration of DMSO was adjusted to be no more than 2% in consideration of the effect on PDE activity.

In the case of `COc1cc2c(=O)c(C)cn3c4ccc(Br)cc4c(c1)c23` [Example 13, 10-bromo-2-methoxy-5-methyl-4H-pyrido[3,2,1-jk]carbazol-4-one], the IC50 with PDE type I is over 100 µM; on PDE type V, 0.1 µM.

As for `O=c1c(Cc2cccnc2)cn2c3ccccc3c3cc(O)cc1c32` [Example 41, 2-hydroxy-5-(3-pyridylmethyl)-4H-pyrido[3,2,1-jk]carbazol-4-one], the half-inhibitory concentration (IC50) in the assay with PDE type I came to 48 µM; at PDE type V, 0.36 µM.

For the compound `O=c1ccn2c3ccc(Br)cc3c3cc(OCc4ncon4)cc1c32` [Example 27, 10-bromo-2-(1,2,4-oxadiazol-3-yl)methyloxy-4H-pyrido[3,2,1-jk]carbazol-4-one], the concentration for half-maximal inhibition (IC50) in the assay with PDE type I is over 30 µM; on PDE type V, 0.021 µM.

On to `Cc1cn2c3ccc(Br)cc3c3cc(OCC(=O)OC(C)C)cc(c1=O)c32` [Example 16], for which the 50% inhibitory concentration (IC50) was over 30 µM in the assay on PDE type I and 0.0017 µM on PDE type V.

With `CCCC(=O)COc1cc2c(=O)c(C)cn3c4ccc(Br)cc4c(c1)c23` [Example 18, 10-bromo-2-(2-oxopentyloxy)-5-methyl-4H-pyrido[3,2,1-jk]carbazol-4-one], the results for the IC50 with PDE type I and on PDE type V were over 30 µM and 0.015 µM, respectively.

`CC(=O)Oc1cc2c(=O)ccn3c4ccc(Br)cc4c(c1)c23` [Example 28, 2-acetoxy-10-bromo-4H-pyrido[3,2,1-jk]carbazol-4-one]: the results for the IC50 in the assay on PDE type I and on PDE type V were over 100 µM and 0.1 µM, respectively.

Turning to `CCOC(=O)COc1cc2c(=O)c(C)cn3c4ccc(Br)cc4c(c1)c23` [Example 17, 10-bromo-2-ethoxycarbonylmethyloxy-5-methyl-4H-pyrido[3,2,1-jk]carbazol-4-one], the half-inhibitory concentration (IC50) is over 30 µM in the assay with PDE type I and 0.0035 µM on PDE type V.

For the compound `COc1cc2c(=O)c(Cc3ccccc3)cn3c4cc(Br)ccc4c(c1)c23` [Example 39, 5-benzyl-9-bromo-2-methoxy-4H-pyrido[3,2,1-jk]carbazol-4-one], the concentration for half-maximal inhibition (IC50) with PDE type I was over 30 µM; on PDE type V, 0.026 µM.

Take `COc1cc2c(=O)c(Cc3cccnc3)cn3c4cc(Br)ccc4c(c1)c23` [Example 30, 9-bromo-2-methoxy-5-(3-pyridylmethyl)-4H-pyrido[3,2,1-jk]carbazol-4-one]: the IC50 is over 30 µM in the assay on PDE type I and 0.0047 µM on PDE type V.

For `O=c1c(Cc2cccnc2)cn2c3ccc(Br)cc3c3cc(OCc4cccnc4)cc1c32` [Example 10, 10-bromo-5-(3-pyridylmethyl)-2-(3-pyridylmethyloxy)-4H-pyrido[3,2,1-jk]carbazol-4-one], the IC50 in the assay with PDE type I is over 30 µM; at PDE type V, 0.059 µM.

Turning to `CCCC(=O)COc1cc2c(=O)ccn3c4ccc(Br)cc4c(c1)c23` [Example 29, 10-bromo-2-(2-oxopentyloxy)-4H-pyrido[3,2,1-jk]carbazol-4-one], the values for the IC50 with PDE type I and on PDE type V were over 30 µM and 0.0047 µM, respectively.

As to `Cc1cn2c3ccc(Br)cc3c3cc(O)cc(c1=O)c32` [Example 14, 10-bromo-2-hydroxy-5-methyl-4H-pyrido[3,2,1-jk]carbazol-4-one], the IC50 is over 300 µM in the assay on PDE type I and 0.1 µM on PDE type V.

On to `CC(=O)Oc1ccc2c3cccc4c(=O)c(Cc5cccnc5)cn(c2c1)c43` [Example 45, 9-acetoxy-5-(3-pyridylmethyl)-4H-pyrido[3,2,1-jk]carbazol-4-one], for which the results for the IC50 with PDE type I and on PDE type V were over 30 µM and 0.06 µM, respectively.

For `CC(=O)OCc1cncc(COc2cc3c(=O)c(Cc4cccnc4)cn4c5cc(Br)ccc5c(c2)c34)c1` [Example 35, 2-(5-acetoxymethyl-3-pyridylmethyloxy)-9-bromo-5-(3-pyridylmethyl)-4H-pyrido[3,2,1-jk]carbazol-4-one], the half-maximal inhibitory concentration (IC50) in the assay with PDE type I is over 30 µM; at PDE type V, 0.088 µM.

In the case of `O=c1c(Cc2ccccc2)cn2c3cc(Br)ccc3c3cc(O)cc1c32` [Example 40, 5-benzyl-9-bromo-2-hydroxy-4H-pyrido[3,2,1-jk]carbazol-4-one], the half-inhibitory concentration (IC50) in the assay with PDE type I is over 30 µM; at PDE type V it was 0.009 µM.

Regarding `O=c1ccn2c3ccc(Br)cc3c3cc(OCc4cccnc4)cc1c32` [Example 25, 10-bromo-2-(3-pyridylmethyloxy)-4H-pyrido[3,2,1-jk]carbazol-4-one], the IC50 with PDE type I is over 100 µM; at PDE type V it was 0.011 µM.

For the compound `O=c1c(Cc2cccnc2)cn2c3ccc(Br)cc3c3cc(O)cc1c32` [Example 2, 10-bromo-2-hydroxy-5-(3-pyridylmethyl)-4H-pyrido[3,2,1-jk]carbazol-4-one], the IC50 is over 30 µM in the assay on PDE type I and 0.1 µM at PDE type V.

Turning to `O=C(O)COc1cc2c(=O)c(Cc3cccnc3)cn3c4cc(Br)ccc4c(c1)c23` [Example 33, 9-bromo-2-carboxymethyloxy-5-(3-pyridylmethyl)-4H-pyrido[3,2,1-jk]carbazol-4-one], the IC50 in the assay with PDE type I was over 30 µM; on PDE type V it was 0.0032 µM.

As to `CC(C)OC(=O)COc1cc2c(=O)c(Cc3cccnc3)cn3c4ccc(Br)cc4c(c1)c23` [Example 4, 10-bromo-2-i-propoxycarbonylmethyloxy-5-(3-pyridylmethyl)-4H-pyrido[3,2,1-jk]carbazol-4-one], the IC50 in the assay with PDE type I is over 30 µM; on PDE type V it was 0.0038 µM.

For `O=c1ccn2c3ccc(Br)cc3c3cc(OCc4ccccc4)cc1c32` [Example 26, 2-benzyloxy-10-bromo-4H-pyrido[3,2,1-jk]carbazol-4-one], the 50% inhibitory concentration (IC50) is over 30 µM with PDE type I and 0.01 µM at PDE type V.

Regarding `O=c1ccn2c3ccc(Br)cc3c3cc(O)cc1c32` [Example 20, 10-bromo-2-hydroxy-4H-pyrido[3,2,1-jk]carbazol-4-one], the half-maximal inhibitory concentration (IC50) with PDE type I was over 100 µM; on PDE type V, 0.03 µM.

On to `COc1cc2c(=O)ccn3c4ccc(Br)cc4c(c1)c23` [Example 19, 10-bromo-2-methoxy-4H-pyrido[3,2,1-jk]carbazol-4-one], for which the results for the 50% inhibitory concentration (IC50) in the assay on PDE type I and at PDE type V were over 10 µM and 0.05 µM, respectively.

`CC(C)(C)OC(=O)COc1cc2c(=O)c(Cc3cccnc3)cn3c4cc(Br)ccc4c(c1)c23` [Example 32, 9-bromo-2-t-butoxycarbonylmethyloxy-5-(3-pyridylmethyl)-4H-pyrido[3,2,1-jk]carbazol-4-one]: the IC50 in the assay on PDE type I is over 30 µM; on PDE type V, 0.091 µM.

Regarding `CCOC(=O)COc1cc2c(=O)c(Cc3cccnc3)cn3c4ccc(Br)cc4c(c1)c23` [Example 5, 10-bromo-2-ethoxycarbonylmethyloxy-5-(3-pyridylmethyl)-4H-pyrido[3,2,1-jk]carbazol-4-one], the concentration for half-maximal inhibition (IC50) in the assay with PDE type I is over 30 µM; at PDE type V it was 0.0055 µM.

Regarding `CC(C)(C)OC(=O)COc1cc2c(=O)ccn3c4ccc(Br)cc4c(c1)c23` [Example 21, 10-bromo-2-t-butoxycarbonylmethyloxy-4H-pyrido[3,2,1-jk]carbazol-4-one], the IC50 in the assay on PDE type I was over 30 µM; on PDE type V, 0.0009 µM.

With `O=C(O)COc1cc2c(=O)ccn3c4ccc(Br)cc4c(c1)c23` [Example 24, 10-bromo-2-carboxymethyloxy-4H-pyrido[3,2,1-jk]carbazol-4-one], the half-maximal inhibitory concentration (IC50) with PDE type I is over 30 µM; at PDE type V, 0.19 µM.

Consider `O=c1c(Cc2cccnc2)cn2c3cc(Br)ccc3c3cc(OCc4cncc(CO)c4)cc1c32` [Example 36, 9-bromo-2-(5-hydroxymethyl-3-pyridylmethyloxy)-5-(3-pyridylmethyl)-4H-pyrido[3,2,1-jk]carbazol-4-one], for which the IC50 in the assay with PDE type I is over 30 µM; at PDE type V it was 0.021 µM.

As for `CCOC(=O)COc1cc2c(=O)ccn3c4ccc(Br)cc4c(c1)c23` [Example 23, 10-bromo-2-ethoxycarbonylmethyloxy-4H-pyrido[3,2,1-jk]carbazol-4-one], the IC50 in the assay with PDE type I was over 30 µM; on PDE type V it was 0.002 µM.

Turning to `CC(=O)Oc1cc2c(=O)c(Cc3cccnc3)cn3c4ccccc4c(c1)c23` [Example 42, 2-acetoxy-5-(3-pyridylmethyl)-4H-pyrido[3,2,1-jk]carbazol-4-one], the values for the IC50 with PDE type I and at PDE type V were over 30 µM and 0.2 µM, respectively.

For the compound `O=c1ccn2c3ccc(Cl)cc3c3cc(Cl)cc1c32` [Example 48, 2,10-dichlor-4H-pyrido[3,2,1-jk]carbazol-4-one], the IC50 in the assay on PDE type I was over 30 µM.

On to `O=c1c(Cc2cccnc2)cn2c3ccc(Br)cc3c3cc(OCc4ccccc4)cc1c32` [Example 11, 2-benzyloxy-10-bromo-5-(3-pyridylmethyl)-4H-pyrido[3,2,1-jk]carbazol-4-one], for which the half-inhibitory concentration (IC50) with PDE type I was over 30 µM; at PDE type V, 0.11 µM.

The term IC50 denotes the point on the concentration scale where inhibition reaches its midpoint.
